Test: MALDI imaging of brain distribution, U87 orthotopic model
Assay type: in vivo, female nude mice
Conditions: re-analysis of previously obtained images (Salphati et al. 2014)
Procedure: Mice were euthanized at 1 and 6 hours post-dose via exsanguination by perfusion under anesthesia. Brains were excised, flash frozen in liquid N2 and stored in a −80° C. freezer until analyzed. Fresh frozen tissue sections were obtained on a cryomicrotome (Leica CM3050S, Buffalo Grove, Ill.) at 12 μm thickness and thaw-mounted onto indium tin oxide coated glass slides (Bruker Daltonics, Billerica, Mass.). Tissue sections were an analyzed by imaging MALDI MS, providing signal intensities (and not absolute quantitation), followed by cresyl violet staining for histological interrogation.
For MALDI MAS analysis, a 40 mg/mL solution of 2,5-dihydroxybenzoic acid (Sigma-Aldrich, St. Louis, Mo.) was prepared in methanol:water (70:30 v/v). […] Matrix solution was homogenously spray-coated onto the tissue using a HTX TM-Sprayer (HTX technologies. Chapel Hill, N.C.). Matrix-coated tissue sections were transferred to the MALDI mass spectrometer (SolariX 7T FT-ICR, Bruker Daltonics, Bremen, Germany) for imaging analysis. […] Laser intensity and number of shots were optimized for sensitivity of the parent drug (1200 shots) with ion detection collected over the mass range of m/z 150-3000.
Following completion of the imaging experiments, matrix coaling was removed by rinsing the glass slide in 100% methanol for 30 seconds or until the entire matrix was visibly removed. […] Microscope images were obtained on an Olympus BX51 (Tokyo, Japan) at 10× magnification and stitched using MicroSuite Analytical v3.0 software (Olympus, Tokyo, Japan). Subsequently, stained images were co-registered to the optical images in FlexImaging for visualization and annotation of tumor and non-tumor regions for the drug images.
To assess drug distribution, imaging MALDI MS data from U87 and GS2 tumor models were co-registered to the cresyl violet stained microscope images in FlexImaging Regions of interest (ROIs) that were selected based on the anatomical features defined in the histological image including tumor and non-tumor regions. Drug intensity for each pixel within the defined ROI was extracted and exported. […] Histogram plots were created in GraphPad Prism 5 to visualize the distribution of pixel intensity frequencies.

## CS(=O)(=O)N1CCN(Cc2cc3nc(-c4cccc5[nH]ncc45)nc(N4CCOCC4)c3s2)CC1 [pictilisib, reference compound]
  distribution of signal intensities in the U87 tumor (MALDI): concentrated in the low intensity bins
